Like-named read-outs stand apart in the source and are kept apart here.
Key:
Assay type in all cases: biochemical
human neurotrypsin = biological target: T1, human neurotrypsin (Homo sapiens, UniProt P56730); assay: Determination of IC50 for human neurotrypsin
T1 sequence (P56730 21-875): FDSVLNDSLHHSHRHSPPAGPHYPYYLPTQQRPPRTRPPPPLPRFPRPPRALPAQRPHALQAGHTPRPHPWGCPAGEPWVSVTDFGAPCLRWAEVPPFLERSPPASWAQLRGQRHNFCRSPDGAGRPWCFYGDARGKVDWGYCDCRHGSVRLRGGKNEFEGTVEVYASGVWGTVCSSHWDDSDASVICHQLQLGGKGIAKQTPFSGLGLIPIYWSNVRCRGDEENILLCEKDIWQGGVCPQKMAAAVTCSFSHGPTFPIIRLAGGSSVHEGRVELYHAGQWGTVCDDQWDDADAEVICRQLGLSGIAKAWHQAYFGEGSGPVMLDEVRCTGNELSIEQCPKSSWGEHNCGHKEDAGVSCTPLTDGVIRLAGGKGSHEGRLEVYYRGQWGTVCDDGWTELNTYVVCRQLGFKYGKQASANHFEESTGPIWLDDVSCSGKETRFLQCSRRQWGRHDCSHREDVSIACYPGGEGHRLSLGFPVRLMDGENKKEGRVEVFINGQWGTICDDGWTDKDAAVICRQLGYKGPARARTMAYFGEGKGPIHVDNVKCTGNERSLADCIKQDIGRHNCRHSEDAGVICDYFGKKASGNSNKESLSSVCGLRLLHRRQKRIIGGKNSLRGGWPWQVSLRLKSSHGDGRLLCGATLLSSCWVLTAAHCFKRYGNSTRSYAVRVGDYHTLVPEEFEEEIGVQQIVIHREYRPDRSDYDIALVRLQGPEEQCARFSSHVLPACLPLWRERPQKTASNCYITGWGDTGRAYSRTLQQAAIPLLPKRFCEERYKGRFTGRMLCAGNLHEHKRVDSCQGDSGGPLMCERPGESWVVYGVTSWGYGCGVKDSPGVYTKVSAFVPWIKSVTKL
Description: Determination of IC50 for Human Neurotrypsin
Assessment of the potency of compounds of examples 1-14 in inhibiting the enzymatic activity of human neurotrypsin was performed according to the method described in patent application […]

Trypsin = biological target: T2, Trypsin (Sus scrofa, UniProt P00761); assay: Determination of IC50 for various proteases (chromogenic substrate, pNA release at 405 nm): trypsin; conditions: hog trypsin 2 nM, substrate S-2222 0.5 mM; Mean ± SD
T2 construct: purchased Sigma Aldrich
Description: (§1) A 6 mM solution of the test compound in DMSO was prepared. In a V-bottom micro plate the 6 mM compound solution was diluted 6 times in DMSO to obtain a concentration row with the following concentrations: 6 mM, 1.8 mM, 540 μM, 162 μM, 48.8 μM, 14.4 μM, and 4 μM. From this DMSO master plate 1:20 dilutions in 10 mM MOPS pH 8.3 were prepared to obtain solutions of 300, 90, 27, 8.1, 2.44, 0.72 and 0.22 μM in MOPS buffer and 5% DMSO.
(§2) 100 μl of this solution were pipetted into a flat bottom 96 well microplate and placed into a Tecan infinite 200 plate reader. Before measurement, 50 μl of protease solution and, subsequently 50 μl substrate solution were added by the machine. The liberation of free para nitroanilide was detected at 405 nm. The protease solution was freshly prepared by diluting to the desired concentration from a stock solution in 60 mM MOPS; 600 mM NaCl; 20 mM CaCl2; 10% DMSO; 0.4% PEG 6000 pH 8.3. The substrate solution was prepared by dissolving the solid substrate in an adequate amount of water to get the desired concentrations. The used protease and substrate solutions are given below:
(§3) All enzymes except trypsin were from human origin (American diagnostic). Trypsin was hog trypsin (Sigma Aldrich). Substrates were purchased from Chromogenix. […]

Plasmin = biological target: T3, Plasmin (Homo sapiens, UniProt P00747); assay: Determination of IC50 for various proteases: plasmin; conditions: plasmin 8 nM, substrate S-2288 0.5 mM; Mean ± SD
T3 construct: purchased American diagnostic
Description: as §1, §2, §3

Factor Xa = biological target: T4, Factor Xa (Homo sapiens, UniProt P00742); assay: Determination of IC50 for various proteases: Factor Xa; conditions: Factor Xa 5 nM, substrate S-2288 0.5 mM; Mean ± SD
T4 construct: purchased American diagnostic
Description: as §1, §2, §3

Thrombin = biological target: T5, Thrombin (Homo sapiens, UniProt P00734); assay: Determination of IC50 for various proteases: thrombin; conditions: thrombin 6 nM, substrate S-2266 0.5 mM; Mean ± SD
T5 construct: purchased American diagnostic
Description: as §1, §2, §3

T4 sequence (P00742 235-488 limits assumed): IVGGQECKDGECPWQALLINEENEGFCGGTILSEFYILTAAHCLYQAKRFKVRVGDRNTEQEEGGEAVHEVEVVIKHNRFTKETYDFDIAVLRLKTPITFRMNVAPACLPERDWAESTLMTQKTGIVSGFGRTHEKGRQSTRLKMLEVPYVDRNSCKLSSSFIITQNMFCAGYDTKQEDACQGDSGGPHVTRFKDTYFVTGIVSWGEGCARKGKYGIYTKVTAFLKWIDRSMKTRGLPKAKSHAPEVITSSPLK
T4 sequence (P00742 41-179 partner limits assumed): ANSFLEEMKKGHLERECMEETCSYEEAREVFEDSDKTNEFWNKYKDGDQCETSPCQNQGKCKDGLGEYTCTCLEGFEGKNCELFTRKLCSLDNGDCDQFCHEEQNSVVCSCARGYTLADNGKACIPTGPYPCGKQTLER
T2 sequence (P00761 9-231): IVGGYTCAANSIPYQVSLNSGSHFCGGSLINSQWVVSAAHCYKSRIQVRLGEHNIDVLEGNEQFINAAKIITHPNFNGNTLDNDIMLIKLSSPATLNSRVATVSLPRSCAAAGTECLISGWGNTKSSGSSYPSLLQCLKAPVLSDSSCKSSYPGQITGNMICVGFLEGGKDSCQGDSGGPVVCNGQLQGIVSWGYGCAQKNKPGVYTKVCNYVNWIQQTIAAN
T3 sequence (P00747 581-810 limits assumed): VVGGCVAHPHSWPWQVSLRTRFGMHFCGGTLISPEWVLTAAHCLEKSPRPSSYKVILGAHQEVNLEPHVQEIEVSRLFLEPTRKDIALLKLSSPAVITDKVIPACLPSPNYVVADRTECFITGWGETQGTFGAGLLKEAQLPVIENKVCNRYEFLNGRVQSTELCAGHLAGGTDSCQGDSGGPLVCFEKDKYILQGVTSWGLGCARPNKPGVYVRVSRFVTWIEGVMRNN
T3 sequence (P00747 97-580 partner limits assumed): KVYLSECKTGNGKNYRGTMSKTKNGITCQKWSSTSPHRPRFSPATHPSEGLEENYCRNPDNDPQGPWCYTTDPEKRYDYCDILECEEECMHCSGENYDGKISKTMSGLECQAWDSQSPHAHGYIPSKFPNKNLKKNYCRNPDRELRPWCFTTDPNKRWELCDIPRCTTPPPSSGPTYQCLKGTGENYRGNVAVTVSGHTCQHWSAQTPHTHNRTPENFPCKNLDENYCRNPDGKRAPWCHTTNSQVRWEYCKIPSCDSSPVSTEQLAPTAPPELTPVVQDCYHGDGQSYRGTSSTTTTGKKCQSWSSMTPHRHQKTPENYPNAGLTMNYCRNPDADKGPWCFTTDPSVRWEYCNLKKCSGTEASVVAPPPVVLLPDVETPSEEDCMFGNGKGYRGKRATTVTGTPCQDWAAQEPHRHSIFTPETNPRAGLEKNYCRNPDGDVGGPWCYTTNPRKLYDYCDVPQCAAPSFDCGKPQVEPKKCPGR

IC50 (human neurotrypsin; Mean ± SD, read-out: IC50 Neurotrypsin): 0.47 ± 0.15 µM | IC50 (human neurotrypsin; table of all 14 examples, read-out: Neurotrypsin IC50): 0.4 µM | IC50 (Trypsin): > 150 µM | IC50 (Plasmin): > 150 µM | IC50 (Factor Xa): 84.8 ± 46.4 µM | IC50 (Thrombin): > 150 µM
SMILES: O=C(Nc1ccc(C(=O)Nc2ccc(Cl)cc2)c(O)c1)c1ccc(-c2nc3cc(Cl)c(Cl)cc3[nH]2)cc1 [Example 1, N-(4-Chlorophenyl)-4-(4-(5,6-dichloro-1H-benzo[d]imidazol-2-yl)benzamido)-2-hydroxybenzamide]
